From patent US11684594B2, “Antifungal prophylaxis for cornea” (PRESIDENT AND FELLOWS OF HARVARD COLLEGE, priority 2020, dated 2023)
Read-outs that look alike come from different tables or passages of the source.

Assays:
[1] = test system: Candida, Aspergillus, and Fusarium; conditions: 0.01% hypochlorous acid (Avenova), cited from earlier work
[2] = clinical or long-term topical ocular use, cited from earlier work
C. albicans (ATCC 24433) = experiment: In vitro time kill test, yeast; format: cell-based, Candida albicans; conditions: for Ratio fungicidal activity/cytotoxicity: FIG. 3, # of log10 reduction / fold-change in Trypan Blue staining vs PBS (HCLE), 1 min contact, C. albicans
Procedure: (§1) In Vitro Time Kill Tests. Microtiter time kill tests were carried out in vitro according to the published CLSI methods (M27-A2).^22
The inoculum was prepared by adjustment of the optical density at 600 nm (OD600) to 1.0 (corresponding to approximately 1×10^6 CFU/mL), and dilution by 1:10 in the final solution. To confirm the starting inoculum size, yeasts were plated […] and colonies counted after growth for 24 hrs at 37° C. The test solutions were neutralized at each time point by ten-fold dilution in Dey-Engley neutralizing broth (Sigma-Aldrich; St Louis, Mo.), and serially track diluted (PMID: 9343684) on Sabouraud dextrose agar (six serial 1:10 dilutions, 0.01 mL each) in technical triplicate. Colonies were counted and recorded following aerobic incubation for 24 hrs at 37° C.
(§2) To investigate the fungicidal activity of various antibiotics and antimicrobials, the reduction in fungal load after short contact times (0-15 min, FIGS. 2-3), to account for the effect of rapid dilution by the tear film, as occurs in patients after topical instillation, was measured.^23 The detection limit for time kill tests was approximately 100 CFU/mL for C. albicans, and 1 CFU/mL for F. solani and A. fumigatus (corresponding to a ≥3 log difference from the starting inoculum). 20-300 cells were considered a reliable counting range per dilution, and values were averaged when more than one dilution in the same plate were within this range.

[3] = test system: human corneal-limbal epithelial cells (HCLE); format: cell-based
Procedure: In Vitro Toxicity Tests. Trypan Blue assays for toxicity of various antimicrobial agents were conducted using human corneal cells. Telomerase-immortalized human corneal-limbal epithelial cells (HCLE) were thawed at 37° C. and quickly transferred to a sterile T75 cell culture flask. Cells were grown in keratinocyte serum-free medium (KSFM; Gibco™; Thermofisher Scientific; Waltham, Mass.) supplemented with bovine pituitary extract (25 μg/mL), epidermal growth factor (0.2 ng/mL), calcium chloride (0.4 mM CaCl2[…]2H2O; Sigma-Aldrich; St Louis, Mo.), and 1× penicillin/streptomycin, at 37° C. with 5% CO2. Once cells were confluent, they were passaged following trypsinization in 12- or 24-well plates. After incubation with Trypsin-EDTA (0.05%, Gibco™; Thermofisher Scientific; Waltham, Mass.) for 5-10 min at 37° C. with 5% CO2, the reaction was stopped with an equivalent volume of neutralizing medium (Dulbecco's Modified Eagle Medium/Nutrient Mixture F-12, DMEM/F-12, with HEPES and 10% newborn calf serum), centrifuged at 5,000×g for 5 min, and re-suspended in supplemented KSFM. Experiments were performed using cells from passages 31 to 36. Once cells reached confluency, they were gently washed twice with DMEM/F-12 (Gibco™; Thermofisher Scientific; Waltham, Mass.) and incubated with an antimicrobial agent for 1 min (n=2 wells per group). Controls included 1×PBS (diluent) and 1% TX-100 (cell permeabilizer). After exposure to various agents, the cells were washed three times with DMEM/F-12, incubated with 0.2% Trypan Blue for 5 min, and washed again three times with DMEM/F-12. The remaining media was aspirated and replaced with 1×PBS for imaging. Macro-images of the culture plate were taken with a smartphone camera (iPhone 7; Apple Inc.; Cupertino, Calif.), and 10× images were taken with an inverted microscope (Eclipse TS100; Nikon; Tokyo, Japan) attached to a digital camera (SPOT Insight Fire Wire; Diagnostic Instruments Inc.; Sterling Heights, Mich.). 3-6 images/well were obtained in clockwise direction from areas immediately adjacent to the center of the well, and without overlapping areas. Images were quantified in ImageJ Fiji software to determine the amount of cell uptake of Trypan Blue. Macros were created from the Color Threshoulder plugin (G. Landini) to batch process the images after color matching in Photoshop to reference images per treatment group. % Area of Trypan Blue staining per image was calculated as follows: (area of blue/area of all)×100%.

[4] = test system: Candida albicans (ATCC 24433), Fusarium solani (ATCC MYA-3636), and Aspergillus fumigatus (ATCC MYA-3626); experiment: In vitro antifungal testing, statements not resolved by species; format: cell-based
Procedure: Several commonly used antibiotics were tested in vitro against Candida albicans (ATCC 24433), Fusarium solani (ATCC MYA-3636), and Aspergillus fumigatus (ATCC MYA-3626). Time kill activity and minimum inhibitory concentrations (MIC) were determined. Also the antiseptics benzalkonium chloride (BAK), povidone-iodine (PI), and ionic liquids (ILs) consisting of a 1:1 mixture of choline and undecanoic acid, were tested. Toxicity was assayed in vitro on cultures of human corneal epithelial cells, subjected to Trypan Blue staining. Adhesion and tissue invasion experiments were also carried out, with or without γ-irradiation, and by analysis with fluorescent microscopy.
as §1

[5] = test system: A. fumigatus (ATCC MYA-3626); experiment: In vitro time kill test, filamentous fungi; format: cell-based, Aspergillus fumigatus; conditions: for Ratio fungicidal activity/cytotoxicity: FIG. 3, # of log10 reduction / fold-change in Trypan Blue staining vs PBS (HCLE), 1 min contact, A. fumigatus
Procedure: as §1
(§3) ii) Filamentous fungi: The antibiotic solutions, at either full or 1/10 strength, and antiseptics were inoculated with approximately 2×10^5-2×10^6 conidia/mL of F. solani or A. fumigatus in RPMI broth (buffered with MOPS at pH 7.0; Mediatech; Manassas, Va.) for 0-15 min. Conidia were collected by flooding the agar plates with 10 mL of sterile 1×PBS and 0.1% Tween® 20 (Sigma Aldrich; St Louis, Mo.). The solution was transferred to a sterile conical tube, and particles were allowed to settle for 10 min. The resulting supernatant was transferred to a new sterile conical tube and centrifuged at 3,000×g for 5 min. The supernatant was discarded, the remaining pellet was re-suspended in RPMI broth (buffered with MOPS at pH 7.0), and the OD600 was adjusted to 1.0. In the final test solutions, at each time point the inoculum was diluted 1:10 and neutralized in Dey-Engley neutralizing broth (Sigma-Aldrich; St Louis, Mo.). Neutralized cultures were then serially diluted and plated on Sabouraud dextrose agar (two serial 1:10 dilutions, 0.1 mL each) in technical duplicate. Viable conidia were counted and recorded following aerobic incubation for 48 hrs (or as soon as growth was visible) at 25-35° C.
as §2

[6] = test system: F. solani (ATCC MYA-3636); experiment: In vitro time kill test, filamentous fungi; format: cell-based, Fusarium solani; conditions: for Ratio fungicidal activity/cytotoxicity: FIG. 3, # of log10 reduction / fold-change in Trypan Blue staining vs PBS (HCLE), 1 min contact, F. solani
Procedure: as §1, §3, §2

[7] = 1:1 IL at 10 mM in 1×PBS

In the case of OCl [hypochlorous acid], the “Fungicidal activity (words)” value [1] is listed as “rapid fungicidal and sporicidal activity within one minute of exposure time”, the “Fungicidal activity (words)” value ([1]; listed as Hypochlorous acid) is listed as “highly effective against fungi” and the “Tolerability / ocular safety (words)” value [2] is listed as “well tolerated”. For the same compound, the “Tolerability / ocular safety (words)” value ([2]; listed as Hypochlorous acid) was “easily tolerated”.
With “Choline undecanoate (1:1) [choline-undecanoate IL]” the “Reduction in viable C. albicans” value (C. albicans (ATCC 24433); 10 mM, within 1 min) was 1-4 log, the Ratio fungicidal activity/cytotoxicity (C. albicans (ATCC 24433)) was greater than 1 and the Ratio fungicidal activity/cytotoxicity (C. albicans (ATCC 24433); listed as novel IL) was “highest ratios”. The “Trypan Blue staining (% stained area per image) compared to control treatment TX-100 (1%)” value ([3]; FIG. 2A, confluent HCLE monolayers, 1 min of contact, BAK 40 µg/mL, PI 0.5%, #3-IL 10 mM) was “significantly lower amount of staining”, the “Cytotoxicity / toxicity” value ([3]; HCLE cells, post-exposure Trypan blue staining) was “virtually non-toxic” and the “Efficacy/toxicity ratio, overall rank” value ([4]; fungicidal activity vs HCLE cytotoxicity, species not resolved) was “performed even better”. The “Antifungal / fungicidal activity in vitro” value ([4]; species not resolved, agents at eye-drop or stated concentration) was “effective”, the “Contact time within which in vitro fungicidal activity was exhibited” value ([4]; species-, contact time- and concentration-dependent) was 1 to 15 min and the “Reduction in viable A. fumigatus” value ([5]; 10 mM, within 1 min) was 1-4 log. The Ratio fungicidal activity/cytotoxicity [5] was greater than 1, the Ratio fungicidal activity/cytotoxicity ([5]; listed as novel IL) was “highest ratios” and the “Reduction in viable F. solani” value ([6]; 10 mM, within 1 min) was 1-4 log. The “Reduction in viable conidia” value ([6]; FIG. 2C, within 1 min of contact, Polytrim full strength, PI 0.5%, BAK 40 µg/mL, #3-IL 10 mM) was 2 log10, the Ratio fungicidal activity/cytotoxicity [6] was greater than 1 and the Ratio fungicidal activity/cytotoxicity ([6]; listed as novel IL) was “highest ratios”. The Light tolerance [7] was “tolerant of light exposure”, the pH [7] was 7.2±0.2 and the Stability ([7]; room temperature) was “stable at room temperature for months”.
